According to ChEMBL document CHEMBL3885861, “Open TG-GATES”:

Species on record: Rattus norvegicus
Assay: Open TG-GATES - Regimen: Single
Assay type: toxicity, organism-based, Sprague-Dawley
Design: regimen Single, gender Male, age 6 weeks
Details: in vivo, po, 300 mg/kg, route gavage, dose level High; for APTT / Bas / Eos / Fbg / Hb / Ht / Lym / MCH / MCHC / MCV / Mono / Neu / PT / Plat / RBC / Ret / WBC: tissue Blood; for KIDNEY_L / KIDNEY_R / KIDNEY_TOTAL: tissue Kidney; for LIVER: tissue Liver; for A/G / ALP / ALT / AST / BUN / CRE / Ca / Cl / DBIL / GLC / IP / K / LDH / Na / PL / RALB / TBIL / TC / TG / TP / gamma-GTP: tissue Plasma

ClC(Cl)(Cl)Cl [CARBON TETRACHLORIDE]
TERMINAL_BW (3 h): 206.7 g
APTT (3 h): 18.3 s
Bas (3 h): 0%
Eos (3 h): 1%
Fbg (3 h): 242 mg/dL
Hb (3 h): 13 g/dL
Ht (3 h): 37.2%
Lym (3 h): 74.4%
MCH (3 h): 21.8 pg
MCHC (3 h): 34.9%
MCV (3 h): 62.4 fL
Mono (3 h): 2.2%
Neu (3 h): 21.8%
PT (3 h): 12.5 s
Plat (3 h): 125.5 x10_4/uL
RBC (3 h): 595.8 x10_4/ul
Ret (3 h): 8.9%
WBC (3 h): 76.7 x10_2/uL
KIDNEY_L (3 h): 0.9 g
KIDNEY_R (3 h): 0.9 g
KIDNEY_TOTAL (3 h): 1.8 g
LIVER (3 h): 9.4 g
A/G (3 h): 1.6
ALP (3 h): 909.4 IU/L
ALT (3 h): 39.4 IU/L
AST (3 h): 67.8 IU/L
BUN (3 h): 12.2 mg/dL
CRE (3 h): 0.4 mg/dL
Ca (3 h): 10.5 mg/dL
Cl (3 h): 104 meq/L
DBIL (3 h): 0.1 mg/dL
GLC (3 h): 187.4 mg/dL
IP (3 h): 10.1 mg/dL
K (3 h): 3.8 meq/L
LDH (3 h): 201.4 IU/L
Na (3 h): 140 meq/L
PL (3 h): 156.4 mg/dL
RALB (3 h): 3.3 g/dL
TBIL (3 h): 0.2 mg/dL
TC (3 h): 79.2 mg/dL
TG (3 h): 90.8 mg/dL
TP (3 h): 5.4 g/dL
gamma-GTP (3 h): 1.2 IU/L
TERMINAL_BW (6 h): 208.2 g
APTT (6 h): 18.5 s
Bas (6 h): 0%
Eos (6 h): 0.8%
Fbg (6 h): 231.4 mg/dL
Hb (6 h): 13.1 g/dL
Ht (6 h): 37.9%
Lym (6 h): 77.2%
MCH (6 h): 21.3 pg
MCHC (6 h): 34.6%
MCV (6 h): 61.7 fL
Mono (6 h): 3%
Neu (6 h): 18.4%
PT (6 h): 13 s
Plat (6 h): 125.2 x10_4/uL
RBC (6 h): 614.2 x10_4/ul
Ret (6 h): 8.6%
WBC (6 h): 96.7 x10_2/uL
KIDNEY_L (6 h): 0.9 g
KIDNEY_R (6 h): 0.9 g
KIDNEY_TOTAL (6 h): 1.8 g
LIVER (6 h): 9.1 g
A/G (6 h): 1.7
ALP (6 h): 830.8 IU/L
ALT (6 h): 29.8 IU/L
AST (6 h): 65.2 IU/L
BUN (6 h): 10.4 mg/dL
CRE (6 h): 0.4 mg/dL
Ca (6 h): 10.5 mg/dL
Cl (6 h): 103.2 meq/L
DBIL (6 h): 0.086 mg/dL
GLC (6 h): 201.8 mg/dL
IP (6 h): 10.1 mg/dL
K (6 h): 4 meq/L
LDH (6 h): 205.8 IU/L
Na (6 h): 139.6 meq/L
PL (6 h): 150.4 mg/dL
RALB (6 h): 3.4 g/dL
TBIL (6 h): 0.1 mg/dL
TC (6 h): 73 mg/dL
TG (6 h): 68.2 mg/dL
TP (6 h): 5.5 g/dL
gamma-GTP (6 h): 1.2 IU/L
TERMINAL_BW (9 h): 203.7 g
APTT (9 h): 19.1 s
Bas (9 h): 0%
Eos (9 h): 1%
Fbg (9 h): 232.6 mg/dL
Hb (9 h): 13.3 g/dL
Ht (9 h): 37.9%
Lym (9 h): 80.4%
MCH (9 h): 21.5 pg
MCHC (9 h): 35%
MCV (9 h): 61.7 fL
Mono (9 h): 2.8%
Neu (9 h): 16%
PT (9 h): 12.5 s
Plat (9 h): 137.8 x10_4/uL
RBC (9 h): 615.2 x10_4/ul
Ret (9 h): 8.7%
WBC (9 h): 72.4 x10_2/uL
KIDNEY_L (9 h): 0.9 g
KIDNEY_R (9 h): 0.9 g
KIDNEY_TOTAL (9 h): 1.8 g
LIVER (9 h): 8.8 g
A/G (9 h): 1.5
ALP (9 h): 987.6 IU/L
ALT (9 h): 28.4 IU/L
AST (9 h): 63.2 IU/L
BUN (9 h): 9.4 mg/dL
CRE (9 h): 0.4 mg/dL
Ca (9 h): 10.5 mg/dL
Cl (9 h): 103 meq/L
DBIL (9 h): 0.1 mg/dL
GLC (9 h): 193 mg/dL
IP (9 h): 10.4 mg/dL
K (9 h): 3.9 meq/L
LDH (9 h): 200.2 IU/L
Na (9 h): 139.4 meq/L
PL (9 h): 150.8 mg/dL
RALB (9 h): 3.3 g/dL
TBIL (9 h): 0.2 mg/dL
TC (9 h): 71 mg/dL
TG (9 h): 80.2 mg/dL
TP (9 h): 5.5 g/dL
gamma-GTP (9 h): 1.2 IU/L
TERMINAL_BW (24 h): 212.9 g
APTT (24 h): 19.3 s
Bas (24 h): 0%
Eos (24 h): 1%
Fbg (24 h): 225.4 mg/dL
Hb (24 h): 13.5 g/dL
Ht (24 h): 38.6%
Lym (24 h): 79%
MCH (24 h): 22.4 pg
MCHC (24 h): 34.8%
MCV (24 h): 64.4 fL
Mono (24 h): 3.8%
Neu (24 h): 15.6%
PT (24 h): 12.6 s
Plat (24 h): 131.5 x10_4/uL
RBC (24 h): 599.6 x10_4/ul
Ret (24 h): 7.8%
WBC (24 h): 110.3 x10_2/uL
KIDNEY_L (24 h): 1 g
KIDNEY_R (24 h): 1 g
KIDNEY_TOTAL (24 h): 2 g
LIVER (24 h): 10.2 g
A/G (24 h): 1.6
ALP (24 h): 1310.2 IU/L
ALT (24 h): 42.2 IU/L
AST (24 h): 75 IU/L
BUN (24 h): 16.4 mg/dL
CRE (24 h): 0.4 mg/dL
Ca (24 h): 10.8 mg/dL
Cl (24 h): 103.8 meq/L
DBIL (24 h): 0.08 mg/dL
GLC (24 h): 183.8 mg/dL
IP (24 h): 8 mg/dL
K (24 h): 3.9 meq/L
LDH (24 h): 192.6 IU/L
Na (24 h): 140 meq/L
PL (24 h): 139.6 mg/dL
RALB (24 h): 3.5 g/dL
TBIL (24 h): 0.1 mg/dL
TC (24 h): 61.4 mg/dL
TG (24 h): 69.6 mg/dL
TP (24 h): 5.6 g/dL
gamma-GTP (24 h): 1 IU/L
